Reference: US9949979B2, “Use of inhibitors of the activity or function of PI3K” (NOVARTIS AG, priority 2011, dated 2018)

Test system: TLR9
Test: TLR9-induced IFN-alpha in murine splenocytes (CpG1585, ELISA)
Format: cell-based, 129/Sv mice
Details: Mus musculus, Splenocyte; read-out: TLR9-ligand induced IFNα in murine splenocytes IC50
Method: 2.3 Determination of TLR9-Induced IFN-Alpha in Murine Splenocytes
Excess fat was trimmed from the spleens prior to mashing the spleen through a […] cell strainer using a plunger from a 5 ml syringe. A single cell suspension was prepared and the volume was adjusted to 15 ml in a 50 ml Falcon tube using cold PBS. Cells were centrifuged at 1500 rpm for 5 minutes at 4° C. degrees prior to removal of supernatant and re-suspension in 5 ml of red blood cell lysis buffer per spleen and incubation for 5 minutes at room temperature. Ice cold PBS (30 ml) was added to the cells prior to centrifugation at 1500 rpm for 5 minutes at 4° C. The supernatant was removed and the cells were washed twice with 40 ml of murine splenocyte culture media (MSCM). […] Cells were re-suspended in 10-20 ml of MSCM and counted using a Countess cell counter. […]
After overnight culture, cells were transferred to 96-well V-bottomed plates and centrifuged at 2000 rpm for 5 minutes at room temperature. Subsequently 150 μl of each culture supernatant was transferred to 96-well flat-bottomed plates and […] were measured using commercially available mouse IFN-alpha sandwich ELISA kit (PBL Interferon Source). […] IFN-alpha levels were measured within 5 minutes using a SpectraMax 190 Plate Reader (450 nm) and analyzed using SoftMax Pro and GraphPad Prism software.

CCC(=O)N1CC[C@H](Nc2ncnc3c2CN(c2cnc(OC)c(C(F)(F)F)c2)CC3)C1 [Example 67, 1-{(S)-3-[6-(6-Methoxy-5-trifluoromethyl-pyridin-3-yl)-5,6,7,8-tetrahydro-pyrido[4,3-d]pyrimidin-4-ylamino]-pyrrolidin-1-yl}-propan-1-one]
IC50: > 2220 nM
